# Source: patent US10821115B2, “Compounds that inhibit Mcl-1 protein” (priority 2017, dated 2020)
# Key:
# [1] = molecular target: recombinant human Mcl-1 (residues 171-327) / Bim interaction (Homo sapiens (Human), UniProt Q07820); assay: biochemical; format: binding; details: 0.1 nM Mcl-1(171-327), 0.05 nM biotin-Bim (51-76); read-out: Mcl-1 HTRF IC50
# [2] = system: human multiple myeloma cell line, OPM-2; assay: Cell viability assay (OPM-2 10 FBS), CellTiter-Glo; format: cell-based; details: Homo sapiens, OPM-2, 16 h, read-out: OPM-2 10% FBS IC50 IP, OPM-2 cells, 10% FBS, 16 h incubation
# How it was run: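 Serially diluted test compounds are incubated 16 h with cells (3000/well) in RPMI 1640 supplemented with 10% FBS. Viability is then measured by luminescence and IC50 calculated by 4-parameter logistic fit.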
# Chain of recombinant human Mcl-1 (residues 171-327) / Bim interaction (Q07820 171-327): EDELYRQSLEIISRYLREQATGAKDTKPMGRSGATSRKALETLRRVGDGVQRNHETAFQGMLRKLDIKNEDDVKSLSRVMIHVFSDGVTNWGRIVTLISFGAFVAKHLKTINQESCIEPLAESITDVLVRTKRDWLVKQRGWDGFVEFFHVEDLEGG
SMILES,IC50 [1],IC50 [2]
"CO[C@]1(CN2CCN3CCCC[C@@H]3C2)/C=C/C[C@H](C)[C@@H](C)S(=O)(=O)NC(=O)c2ccc3c(n2)N(C[C@@H]2CC[C@H]21)C[C@@]1(CCCc2cc(Cl)ccc21)CO3 [Example 186, (1S,3′R,6′R,7′R,8′E,11′S,12′R)-6-chloro-7′-methoxy-11′,12′-dimethyl-7′-((9aR)-octahydro-2H-pyrido[1,2-a]pyrazin-2-ylmethyl)-3,4-dihydro-2H,15′H-spiro[naphthalene-1,22′-[20]oxa[13]thia[1,14,25]triazatetracyclo [14.7.2.0~3,6~.0~19,24~]pentacosa[8,16,18,24]tetraen]-15′-one 13′,13′-dioxide]",0.255 nM,431 nM
"COCC[C@@H]1[C@@H](C)C/C=C/[C@@](CN2CCN(C3COC3)CC2)(OC)[C@@H]2CC[C@H]2CN2C[C@@]3(CCCc4cc(Cl)ccc43)COc3ccc(cc32)C(=O)NS1(=O)=O [Example 187, (1S,3′R,6′R,7′R,8′E,11′S,12′R)-6-chloro-7′-methoxy-12′-(2-methoxyethyl)-11′-methyl-7′-((4-(3-oxetanyl)-1-piperazinyl)methyl)-3,4-dihydro-2H,15′H-spiro[naphthalene-1,22′-[20]oxa[13]thia[1,14]diazatetracyclo [14.7.2.0~3,6~.0~19,24~]pentacosa[8,16,18,24]tetraen]-15′-one 13′,13′-dioxide]",0.066 nM,43 nM
"COCC[C@@H]1[C@@H](C)C/C=C/[C@@](CN2CCN(C(C)C)CC2)(OC)[C@@H]2CC[C@H]2CN2C[C@@]3(CCCc4cc(Cl)ccc43)COc3ccc(cc32)C(=O)NS1(=O)=O [Example 188, (1S,3′R,6′R,7′R,8′E,11′S,12′R)-6-chloro-7′-methoxy-12′-(2-methoxyethyl)-11′-methyl-7′-((4-(1-methylethyl)-1-piperazinyl)methyl)-3,4-dihydro-2H,15′H-spiro[naphthalene-1,22′-[20]oxa[13]thia[1,14]diazatetracyclo [14.7.2.0~3,6~.0~19,24~]pentacosa[8,16,18,24]tetraen]-15′-one 13′,13′-dioxide]",0.084 nM,38 nM
"COCC[C@@H]1[C@@H](C)C/C=C/[C@@](CN2CCN(C(C)(C)C)CC2)(OC)[C@@H]2CC[C@H]2CN2C[C@@]3(CCCc4cc(Cl)ccc43)COc3ccc(cc32)C(=O)NS1(=O)=O [Example 189, (1S,3′R,6′R,7′R,8′E,11′S,12′R)-7′-((4-tert-butyl-1-piperazinyl)methyl)-6-chloro-7′-methoxy-12′-(2-methoxyethyl)-11′-methyl-3,4-dihydro-2H,15′H-spiro[naphthalene-1,22′-[20]oxa[13]thia[1,14]diazatetracyclo [14.7.2.0~3,6~.0~19,24~]pentacosa[8,16,18,24]tetraen]-15′-one 13′,13′-dioxide]",0.084 nM,33 nM
"CCO[C@]1(CN2CCN(C(C)(C)C)CC2)/C=C/C[C@H](C)[C@@H](CCOC)S(=O)(=O)NC(=O)c2ccc3c(c2)N(C[C@@H]2CC[C@H]21)C[C@@]1(CCCc2cc(Cl)ccc21)CO3 [Example 190, (1S,3′R,6′R,7′R,8′E,11′S,12′R)-7′-((4-tert-butyl-1-piperazinyl)methyl)-6-chloro-7′-ethoxy-12′-(2-methoxyethyl)-11′-methyl-3,4-dihydro-2H,15′H-spiro[naphthalene-1,22′-[20]oxa[13]thia[1,14]diazatetracyclo [14.7.2.0~3,6~.0~19,24~]pentacosa[8,16,18,24]tetraen]-15′-one 13′,13′-dioxide]",0.087 nM,53 nM
